The record followed here is ChEMBL document CHEMBL1130901, “Halohydrin analogues of cryptophycin 1: synthesis and biological activity” (Bioorg Med Chem Lett, 1998).

Each structure is given as a SMILES string.

Data set [1] in a line: Half life in phosphate buffer at pH 7.4. The class given is ADME.
A short description of data set [2]: Half life in PEM buffer at pH 7.4. The class given is ADME.
A short description of data set [3]: Tested in vitro for the concentration that reduces the amount of pelleted protein by 50% in microtubule assembly assay. It is filed as functional.

Broadly, the half-life is the time needed for the level to fall by half in the phase considered. With `COc1ccc(C[C@H]2NC(=O)/C=C/C[C@@H]([C@H](C)[C@@H](O)[C@@H](Br)c3ccccc3)OC(=O)[C@H](CC(C)C)OC(=O)[C@H](C)CNC2=O)cc1Cl`, the half-life is 11 min in data set [1] and 3.7 min in data set [2].

Turning to `COc1ccc(C[C@H]2NC(=O)/C=C/C[C@@H]([C@H](C)[C@@H](O)[C@@H](Cl)c3ccccc3)OC(=O)[C@H](CC(C)C)OC(=O)[C@H](C)CNC2=O)cc1Cl`, the figures for the half-life in data set [1] and in data set [2] were 660 min and 75 min, respectively. For the same molecule, the ED50 in data set [3] was 7.5 mM.

`COc1ccc(C[C@H]2NC(=O)/C=C/C[C@@H]([C@H](C)[C@@H](O)[C@@H](I)c3ccccc3)OC(=O)[C@H](CC(C)C)OC(=O)[C@H](C)CNC2=O)cc1Cl`: the figures for the half-life in data set [1] and in data set [2] were 2.5 min and under 1 min, respectively.
